Measurements taken from US11780845B2 (Relay Therapeutics, Inc., priority 2019, dated 2023).

What follows are compounds tested on SNU-16 (assay: Cell SNU-16 assay). Conditions: Homo sapiens, SNU-16, SNU-16 cells.
Format: cell-based

IC50 [nM] | SMILES
100 to 250 | C=C(C)C(=O)Nc1ccc(-c2c(C3=CC[C@@H](C(=O)N4CC5CC4C5)CC3)c3c(N)ncnc3n2C)cc1 [Example 996]
1000 to 100000 | C=C(C)C(=O)Nc1ccc(-c2c(C3=CC[C@@H](C(=O)N4CCC5(CC5)C4)CC3)c3c(N)ncnc3n2C)cc1 (single isomer, unassigned) [Example 891]
≤ 100 | C=CC(=O)Nc1ccc(-c2c(C3=CC[C@@H](C(=O)N4CCCC4)CC3)c3c(N)ncnc3n2C)cc1 (single isomer, unassigned) [Example 962]
≤ 100 | C#Cc1cc(C)c(-c2c(C3=CC[C@@H](C(=O)N4CCCC45COC5)CC3)c3c(N)ncnc3n2C)cn1 (single isomer, unassigned) [Example 1239]
≤ 100 | C=C(C)C(=O)Nc1ccc(-c2c(C3=CC[C@H](C(=O)N4CCCC4)CC3)c3c(N)ncnc3n2C)c(Cl)c1 [Example 1017]
250 to 1000 | C=C(C)C(=O)Nc1ccc(-c2cn3ncnc(N)c3c2C2=CCC(C(=O)N(C)C)CC2)cc1 (centres unmarked) [Example 843]
250 to 1000 | C=C(C)C(=O)Nc1ccc(-c2c(-c3ccc(-n4cc(CC)cn4)nc3)c3c(N)ncnc3n2C)cc1 [Example 1316]
≤ 100 | C=C(C)C(=O)Nc1ccc(-c2c(C3=CC[C@@H](C(=O)N4CCC[C@H]4C4CC4)CC3)c3c(N)ncnc3n2C)cc1 [Example 1056]
1000 to 100000 | C=C(C)C(=O)Nc1ccc(-c2c(C3=CC[C@@H](C(=O)NCC4(F)COC4)CC3)c3c(N)ncnc3n2C)cc1 [Example 1022]

The next lines start with the compound.

SMILES | IC50 [nM]
C=C(C)C(=O)Nc1ccc(-c2[nH]c3ncnc(N)c3c2-c2ccc(S(=O)(=O)C3CCCC3)cc2)cc1 [Example 818] | 250 to 1000
C=C(C)C(=O)Nc1ccc(-c2c(-c3ccc(Oc4nccc(C)n4)cc3)c3c(N)ncnc3n2C)c(Cl)c1C [Example 1064] | ≤ 100
C=C(C)C(=O)Nc1ccc(-c2c(-c3ccc(-c4cccnc4)s3)c3c(N)ncnc3n2C)cc1 [Example 1271] | 1000 to 100000
C#Cc1ncc(-c2c(-c3ccc(Oc4nccc(C)n4)c(F)c3)c3c(C)ncnc3n2C)c(C)c1F [Example 1255] | ≤ 100
C=CC(=O)N1CC(c2c(C3=CC[C@H](C(=O)N4CCCC4)CC3)c3c(N)ncnc3n2C)C[C@@H]1C (some centres unmarked) [Example 889] | 100 to 250
C#Cc1cc(F)c(-c2c(-c3ccc(Oc4nccc(C)n4)c(F)c3)c3c(C)ncnc3n2C)cn1 [Example 1375] | ≤ 100
C#Cc1cc(C)c(-c2c(C3=CC[C@H](C(=O)N4CCC[C@H]4COC)CC3)c3c(N)ncnc3n2C)cn1 (single isomer, unassigned) [Example 1205] | 250 to 1000
C=CC(=O)N1CCC(N)(c2c(-c3ccc(Oc4cccc(C)n4)cc3)c3c(N)ncnc3n2C)C1 (centres unmarked) [Example 850] | 1000 to 100000
C=CC(=O)N1CCC(c2c(-c3cnn(-c4ccccc4C)c3)c3c(N)ncnc3n2C)C1 (centres unmarked) [Example 817] | 100 to 250
C=Cc1ncc(-c2c(-c3ccc(Oc4nccc(C)n4)cc3)c3c(N)ncnc3n2C)c(C)n1 [Example 1063] | ≤ 100

Same assay, conditions: SNU-16 cells

IC50 [nM] | SMILES
1000 to 100000 | C=C(C)C(=O)Nc1ccc(-c2c(C3=CC[C@H](C(=O)N4CCC[C@@]45CCOC5)CC3)c3c(N)ncnc3n2C)cc1 (single isomer, unassigned) [Example 960]
≤ 100 | C#Cc1cc(OC)c(-c2c(-c3ccc(Oc4nccc(C)n4)c(F)c3)c3c(C)ncnc3n2C)c(C)n1 (atropisomer, axis not shown) [Example 1459]
250 to 1000 | C=C(C)C(=O)Nc1cc(-c2c(-c3ccc(C(=O)N4CCCC4)cc3)c3c(N)ncnc3n2C)n(C)n1 [Example 865]

These compounds were tested against FGFR2 (Homo sapiens (Human), UniProt P21802) (assay: Biochemical FGFR2 Caliper assay). Conditions: not given.
FGFR2, sequence (P21802 22-821): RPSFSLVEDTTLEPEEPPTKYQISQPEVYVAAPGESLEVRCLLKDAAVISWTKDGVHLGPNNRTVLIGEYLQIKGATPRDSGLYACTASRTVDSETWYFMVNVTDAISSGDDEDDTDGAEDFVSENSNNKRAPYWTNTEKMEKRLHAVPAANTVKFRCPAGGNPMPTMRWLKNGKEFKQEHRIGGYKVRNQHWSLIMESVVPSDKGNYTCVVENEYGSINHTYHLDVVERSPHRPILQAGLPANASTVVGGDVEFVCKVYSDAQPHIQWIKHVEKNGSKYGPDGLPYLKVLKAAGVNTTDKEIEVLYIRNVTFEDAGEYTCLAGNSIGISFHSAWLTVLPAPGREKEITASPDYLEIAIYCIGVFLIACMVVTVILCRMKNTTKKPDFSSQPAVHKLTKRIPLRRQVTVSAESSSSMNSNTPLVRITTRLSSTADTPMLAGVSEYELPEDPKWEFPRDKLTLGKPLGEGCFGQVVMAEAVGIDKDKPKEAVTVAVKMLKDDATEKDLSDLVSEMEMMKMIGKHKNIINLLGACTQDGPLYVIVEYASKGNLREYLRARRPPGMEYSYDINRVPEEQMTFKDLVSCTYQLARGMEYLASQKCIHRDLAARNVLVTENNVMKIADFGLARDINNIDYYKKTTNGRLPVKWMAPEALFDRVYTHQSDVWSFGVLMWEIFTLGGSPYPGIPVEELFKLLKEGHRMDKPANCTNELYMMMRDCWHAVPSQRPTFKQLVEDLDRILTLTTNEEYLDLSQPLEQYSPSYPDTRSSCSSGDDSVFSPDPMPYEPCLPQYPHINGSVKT

IC50 [nM] | SMILES
250 to 1000 | C=C(C)C(=O)Nc1ccc(-c2c(C3=CC[C@@H](C(=O)N4CC5CC4C5)CC3)c3c(N)ncnc3n2C)cc1 [Example 996]
1000 to 100000 | C=C(C)C(=O)Nc1ccc(-c2c(C3=CC[C@H](C(=O)N4CCC[C@@]45CCOC5)CC3)c3c(N)ncnc3n2C)cc1 (single isomer, unassigned) [Example 960]
1000 to 100000 | C=C(C)C(=O)Nc1ccc(-c2c(C3=CC[C@@H](C(=O)N4CCC5(CC5)C4)CC3)c3c(N)ncnc3n2C)cc1 (single isomer, unassigned) [Example 891]
< 100 | C=CC(=O)Nc1ccc(-c2c(C3=CC[C@@H](C(=O)N4CCCC4)CC3)c3c(N)ncnc3n2C)cc1 (single isomer, unassigned) [Example 962]
< 100 | C#Cc1cc(C)c(-c2c(C3=CC[C@@H](C(=O)N4CCCC45COC5)CC3)c3c(N)ncnc3n2C)cn1 (single isomer, unassigned) [Example 1239]
100 to 250 | C=C(C)C(=O)Nc1cc(-c2c(-c3ccc(C(=O)N4CCCC4)cc3)c3c(N)ncnc3n2C)n(C)n1 [Example 865]
< 100 | C=C(C)C(=O)Nc1ccc(-c2c(C3=CC[C@H](C(=O)N4CCCC4)CC3)c3c(N)ncnc3n2C)c(Cl)c1 [Example 1017]
250 to 1000 | C=C(C)C(=O)Nc1ccc(-c2cn3ncnc(N)c3c2C2=CCC(C(=O)N(C)C)CC2)cc1 (centres unmarked) [Example 843]
250 to 1000 | C=C(C)C(=O)Nc1ccc(-c2c(-c3ccc(-n4cc(CC)cn4)nc3)c3c(N)ncnc3n2C)cc1 [Example 1316]
250 to 1000 | C=C(C)C(=O)Nc1ccc(-c2c(C3=CC[C@@H](C(=O)N4CCC[C@H]4C4CC4)CC3)c3c(N)ncnc3n2C)cc1 [Example 1056]
250 to 1000 | C=C(C)C(=O)Nc1ccc(-c2c(C3=CC[C@@H](C(=O)NCC4(F)COC4)CC3)c3c(N)ncnc3n2C)cc1 [Example 1022]

Continued, compound first:

SMILES | IC50 [nM]
C=C(C)C(=O)Nc1ccc(-c2[nH]c3ncnc(N)c3c2-c2ccc(S(=O)(=O)C3CCCC3)cc2)cc1 [Example 818] | 250 to 1000
C=C(C)C(=O)Nc1ccc(-c2c(-c3ccc(Oc4nccc(C)n4)cc3)c3c(N)ncnc3n2C)c(Cl)c1C [Example 1064] | < 100
C=C(C)C(=O)Nc1ccc(-c2c(-c3ccc(-c4cccnc4)s3)c3c(N)ncnc3n2C)cc1 [Example 1271] | 1000 to 100000
C#Cc1ncc(-c2c(-c3ccc(Oc4nccc(C)n4)c(F)c3)c3c(C)ncnc3n2C)c(C)c1F [Example 1255] | < 100
C=CC(=O)N1CC(c2c(C3=CC[C@H](C(=O)N4CCCC4)CC3)c3c(N)ncnc3n2C)C[C@@H]1C (some centres unmarked) [Example 889] | 250 to 1000
C#Cc1cc(F)c(-c2c(-c3ccc(Oc4nccc(C)n4)c(F)c3)c3c(C)ncnc3n2C)cn1 [Example 1375] | < 100
C#Cc1cc(C)c(-c2c(C3=CC[C@H](C(=O)N4CCC[C@H]4COC)CC3)c3c(N)ncnc3n2C)cn1 (single isomer, unassigned) [Example 1205] | 250 to 1000
C=CC(=O)N1CCC(N)(c2c(-c3ccc(Oc4cccc(C)n4)cc3)c3c(N)ncnc3n2C)C1 (centres unmarked) [Example 850] | 1000 to 100000
C=CC(=O)N1CCC(c2c(-c3cnn(-c4ccccc4C)c3)c3c(N)ncnc3n2C)C1 (centres unmarked) [Example 817] | 100 to 250
C=Cc1ncc(-c2c(-c3ccc(Oc4nccc(C)n4)cc3)c3c(N)ncnc3n2C)c(C)n1 [Example 1063] | < 100
C#Cc1cc(OC)c(-c2c(-c3ccc(Oc4nccc(C)n4)c(F)c3)c3c(C)ncnc3n2C)c(C)n1 (atropisomer, axis not shown) [Example 1459] | < 100
